# From US20090048155A1 (priority 2007, published 2009)
# Legend:
# [1] = tested on: Y. pestis CO99pgm-; design: species or system Sprague-Dawley rats; settings: rat, in vivo
# [2] = tested on: Y. pestis CO99pgm-; design: species or system Sprague-Dawley rats; settings: rat, in vivo; remark: listed apart in the source
smiles,measurement,setting,value
"O=C(O)c1cn(C2CC2)c2cc(N3CCNCC3)c(F)cc2c1=O [Cipro, ciprofloxacin]",leukocyte infiltration index (LII),[1],did not significantly improve
same,lung edema,[1],did not significantly improve
same,lung scores (combined interstitial and alveolar edema and hemorrhage and LII scores),[1],did not significantly improve
same,6-day survival rate,[2],100%
same,Median Survival Time,[2],84 h
same,Survival,[2],28%
